Test system: gray mold fungus (Botrytis cinerea)
Experiment: Cucumber leaf disk preventive test against gray mold fungus
Format: in vivo
Settings: 15° C., six days
Procedure: True leaf of cucumber was punched out with cork borer to 13 mm in diameter to prepare a leaf disk. In 24 well microwell plate that was dispensed with 1 ml 0.8% water agar, the leaf disk was placed such that the upper side of the leaf was in an upward direction. […] Control where 20 micro liter ion-exchange water was spread was prepared (for non-treated group). After confirming that the spray solution was dried, conidium of gray mold fungus (Botrytis cinerea) was suspended into potato dextrose broth (DIFCO) in a density of about 10^5 conidia/mL and was then subjected to a spray inoculation. After leaving to stand the leaf disk in a growth chamber set up at 15° C. for six days, an onset area on each leaf was measured and a preventive value was then calculated by the following equation 1.
The same above operations were carried out using the present diamide compound (2c) or the present diamide compound (3) instead of the present diamide compound (2b), so as to obtain the respective preventive values. Preventive value(%)=100×(A−B)/A (Equation 1)
A: an onset area rate of plant belonging to non-treated group
B: an onset area rate of plant belonging to treated Group onset area rate=(onset area of the leaf disk)/(the total area of the leaf disk) […]

## CNC(=O)C(OC)c1ccccc1COc1cc(C)ccc1C (centres unmarked) [the present amide compound]
The present amide compound alone 1.0 ppm (dimethyl sulfoxide solution)
  preventive value (%): 46%
The present amide compound alone 2.5 ppm (dimethyl sulfoxide solution)
  preventive value (%): 56%

Reference: patent US8846720B2, “Pest controlling composition and method for controlling pest” (Sumitomo Chemical Company, Limited, priority 2010, dated 2014)
